Source: US20240269139A1, “COMPOUNDS FOR TARGETED PROTEIN DEGRADATION OF KINASES” (DANA-FARBER CANCER INSTITUTE, INC., priority 2020, published 2024)
Where two headings read alike, the source gives them in different places.

Key:
Type in all cases: cell-based
[1] = target: T1, protein kinases (human kinome) (Homo sapiens, UniProt O14965)
T1 sequence (O14965 1-403): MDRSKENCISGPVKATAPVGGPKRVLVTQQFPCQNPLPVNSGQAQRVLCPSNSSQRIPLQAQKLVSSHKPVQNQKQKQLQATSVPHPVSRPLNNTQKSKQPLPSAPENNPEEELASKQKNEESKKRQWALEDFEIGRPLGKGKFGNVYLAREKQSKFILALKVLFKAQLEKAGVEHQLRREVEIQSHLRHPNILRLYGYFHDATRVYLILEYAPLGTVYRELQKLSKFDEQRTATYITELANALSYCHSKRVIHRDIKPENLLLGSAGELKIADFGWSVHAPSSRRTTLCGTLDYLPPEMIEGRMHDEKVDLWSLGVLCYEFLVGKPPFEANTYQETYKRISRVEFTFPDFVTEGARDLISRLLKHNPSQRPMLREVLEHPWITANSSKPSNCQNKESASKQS
Description: (§1) Although development of targeted protein degraders requires a POI binder, among already-liganded proteins such as kinases, it was hypothesized that different targets would have a different propensity for current approaches to degrader-mediated destruction, which was termed ‘degradability’. […] It was rationalized that the probability of identifying the same kinase as a false positive in multiple treatments is low, therefore this analysis served to also assess the robustness of our data and subsequent interpretations. […] Overall, 62 protein kinases were degraded in more than 10 independent treatments, and remarkably, 9 of these (CDK4, AURKA, FER, WEE1, BLK. LIMK2, CDK6, GAK, LIMK1) were each degraded in at least 40 of the 154 independent treatments, emphasizing their predisposition to induced degradation (FIG. 1G; Appendix I).
(§2) Next, the frequency of degradation assessment was corrected for over-representation of molecules in the full dataset by omitting replicate profiling of compounds under different experimental conditions, to remove any bias. […] Unsurprisingly, the top degradable kinases mirror those from the previous analysis (CDK4, AURKA, FER, WEE1, BLK), confirming that in sufficiently large datasets, even with over-representation of certain molecules, frequency of degradation is a good measure of general tractability.

[2] = target: protein kinases (human kinome) (Homo sapiens, UniProt Q2M2I8); details: experiment wp134
Sequence of protein kinases (human kinome) (Homo sapiens, UniProt Q2M2I8) (Q2M2I8 whole entry): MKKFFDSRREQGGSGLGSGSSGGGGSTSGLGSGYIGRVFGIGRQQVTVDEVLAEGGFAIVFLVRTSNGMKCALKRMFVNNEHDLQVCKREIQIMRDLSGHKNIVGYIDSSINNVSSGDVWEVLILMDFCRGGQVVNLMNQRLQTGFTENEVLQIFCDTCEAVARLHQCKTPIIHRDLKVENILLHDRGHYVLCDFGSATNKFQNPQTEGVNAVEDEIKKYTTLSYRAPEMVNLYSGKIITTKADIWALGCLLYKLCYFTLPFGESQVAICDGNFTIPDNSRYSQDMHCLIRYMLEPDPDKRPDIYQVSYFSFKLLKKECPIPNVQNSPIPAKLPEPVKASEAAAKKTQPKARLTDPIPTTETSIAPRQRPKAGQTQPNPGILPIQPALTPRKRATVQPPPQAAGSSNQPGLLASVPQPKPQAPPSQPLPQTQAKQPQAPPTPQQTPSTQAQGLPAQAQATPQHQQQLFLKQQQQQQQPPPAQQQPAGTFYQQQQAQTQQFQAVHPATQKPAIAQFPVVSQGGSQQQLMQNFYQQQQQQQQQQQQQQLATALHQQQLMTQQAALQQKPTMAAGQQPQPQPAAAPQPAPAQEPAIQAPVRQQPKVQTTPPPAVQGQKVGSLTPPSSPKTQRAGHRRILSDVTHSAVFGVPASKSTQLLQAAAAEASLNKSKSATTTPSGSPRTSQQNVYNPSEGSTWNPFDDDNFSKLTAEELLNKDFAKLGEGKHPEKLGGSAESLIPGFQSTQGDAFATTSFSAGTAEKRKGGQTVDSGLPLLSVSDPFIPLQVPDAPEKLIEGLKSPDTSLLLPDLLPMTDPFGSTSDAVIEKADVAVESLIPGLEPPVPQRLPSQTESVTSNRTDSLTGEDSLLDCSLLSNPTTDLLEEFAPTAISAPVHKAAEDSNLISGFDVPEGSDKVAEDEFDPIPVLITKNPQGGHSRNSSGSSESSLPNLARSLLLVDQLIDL
Description: as §1, §2

[3] = test system: protein kinases (human kinome); details: for logFC MAPK14: experiment wp047
Description: as §1, §2

[4] = target: protein kinases (human kinome) (Homo sapiens, UniProt Q00537)
Sequence of protein kinases (human kinome) (Homo sapiens, UniProt Q00537) (Q00537 whole entry): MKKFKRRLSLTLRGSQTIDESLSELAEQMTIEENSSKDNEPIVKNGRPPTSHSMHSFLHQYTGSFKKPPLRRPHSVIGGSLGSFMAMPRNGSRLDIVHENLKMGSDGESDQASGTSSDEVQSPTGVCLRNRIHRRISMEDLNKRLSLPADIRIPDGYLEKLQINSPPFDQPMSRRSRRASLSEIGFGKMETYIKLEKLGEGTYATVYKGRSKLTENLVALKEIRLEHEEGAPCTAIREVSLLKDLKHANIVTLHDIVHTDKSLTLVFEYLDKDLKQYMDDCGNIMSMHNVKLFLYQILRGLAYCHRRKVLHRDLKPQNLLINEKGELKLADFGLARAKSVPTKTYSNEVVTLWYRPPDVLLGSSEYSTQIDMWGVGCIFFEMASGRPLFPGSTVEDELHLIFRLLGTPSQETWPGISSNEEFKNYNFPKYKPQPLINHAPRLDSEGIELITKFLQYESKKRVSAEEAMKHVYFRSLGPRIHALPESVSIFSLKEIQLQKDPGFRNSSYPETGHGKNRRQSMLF
Description: as §1, §2

[5] = target: protein kinases (human kinome) (Homo sapiens, UniProt P51451); details: for logFC of BLK (P51451): down
Sequence of protein kinases (human kinome) (Homo sapiens, UniProt P51451) (P51451 whole entry): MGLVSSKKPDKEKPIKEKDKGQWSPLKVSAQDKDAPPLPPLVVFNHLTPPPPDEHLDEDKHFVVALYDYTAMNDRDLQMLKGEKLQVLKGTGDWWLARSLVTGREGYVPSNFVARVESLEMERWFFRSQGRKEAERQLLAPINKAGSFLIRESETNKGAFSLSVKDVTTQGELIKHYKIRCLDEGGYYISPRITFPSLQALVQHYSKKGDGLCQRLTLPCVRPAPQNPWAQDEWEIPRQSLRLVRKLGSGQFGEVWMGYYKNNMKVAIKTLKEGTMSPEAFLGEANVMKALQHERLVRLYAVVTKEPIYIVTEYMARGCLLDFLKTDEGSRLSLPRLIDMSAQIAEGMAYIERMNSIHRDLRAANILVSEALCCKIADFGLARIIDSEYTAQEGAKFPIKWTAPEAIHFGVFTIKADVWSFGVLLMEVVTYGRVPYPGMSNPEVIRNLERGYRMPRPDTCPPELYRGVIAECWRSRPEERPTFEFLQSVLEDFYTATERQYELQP
Description: as §1, §2

[6] = target: protein kinases (human kinome) (Homo sapiens, UniProt P53671); details: for logFC LIMK2: LIMK2 (P53671), down; for logFC of LIMK2: LIMK2 P53671
Sequence of protein kinases (human kinome) (Homo sapiens, UniProt P53671) (P53671 whole entry): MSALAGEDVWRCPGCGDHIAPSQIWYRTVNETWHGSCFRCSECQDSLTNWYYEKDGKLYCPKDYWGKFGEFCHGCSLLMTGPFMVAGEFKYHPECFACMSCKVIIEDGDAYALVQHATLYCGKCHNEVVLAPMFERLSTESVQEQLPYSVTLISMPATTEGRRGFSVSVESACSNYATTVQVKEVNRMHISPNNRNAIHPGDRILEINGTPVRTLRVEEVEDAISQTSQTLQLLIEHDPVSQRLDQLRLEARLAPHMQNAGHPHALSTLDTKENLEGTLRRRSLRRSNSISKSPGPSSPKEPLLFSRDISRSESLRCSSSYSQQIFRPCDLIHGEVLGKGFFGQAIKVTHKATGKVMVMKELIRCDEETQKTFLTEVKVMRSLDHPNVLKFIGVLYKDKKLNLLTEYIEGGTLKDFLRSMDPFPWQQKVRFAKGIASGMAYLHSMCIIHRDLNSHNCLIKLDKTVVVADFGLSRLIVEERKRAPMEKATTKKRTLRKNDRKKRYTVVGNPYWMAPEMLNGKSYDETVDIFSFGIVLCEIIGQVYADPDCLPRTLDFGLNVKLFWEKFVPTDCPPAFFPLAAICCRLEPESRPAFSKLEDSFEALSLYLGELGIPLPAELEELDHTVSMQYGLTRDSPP
Description: as §1, §2

[7] = target: protein kinases (human kinome) (Homo sapiens, UniProt P53667); details: LIMK1 (P53667-1)
Sequence of protein kinases (human kinome) (Homo sapiens, UniProt P53667) (P53667 whole entry): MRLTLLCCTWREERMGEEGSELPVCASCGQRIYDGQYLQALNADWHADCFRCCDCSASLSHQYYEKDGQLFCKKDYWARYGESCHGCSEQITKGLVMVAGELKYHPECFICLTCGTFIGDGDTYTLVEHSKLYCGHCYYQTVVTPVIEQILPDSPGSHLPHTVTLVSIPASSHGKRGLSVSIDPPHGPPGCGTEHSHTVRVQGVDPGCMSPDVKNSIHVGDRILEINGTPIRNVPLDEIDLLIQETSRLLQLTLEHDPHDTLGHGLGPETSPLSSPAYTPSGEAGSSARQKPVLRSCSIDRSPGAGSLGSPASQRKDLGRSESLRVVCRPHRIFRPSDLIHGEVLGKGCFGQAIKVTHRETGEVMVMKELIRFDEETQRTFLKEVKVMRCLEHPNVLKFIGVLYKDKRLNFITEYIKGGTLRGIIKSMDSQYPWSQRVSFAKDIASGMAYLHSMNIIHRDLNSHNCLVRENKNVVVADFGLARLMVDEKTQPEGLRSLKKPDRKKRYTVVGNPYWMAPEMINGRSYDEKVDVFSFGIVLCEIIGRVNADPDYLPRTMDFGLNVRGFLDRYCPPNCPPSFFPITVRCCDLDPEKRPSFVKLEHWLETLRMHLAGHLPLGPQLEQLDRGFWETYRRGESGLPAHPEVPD
Description: as §1, §2

[8] = target: T2, protein kinases (human kinome) (Homo sapiens, UniProt Q9UEE5); details: STK17A Q9UEE5; experiment wp149
T2 sequence (Q9UEE5 1-414): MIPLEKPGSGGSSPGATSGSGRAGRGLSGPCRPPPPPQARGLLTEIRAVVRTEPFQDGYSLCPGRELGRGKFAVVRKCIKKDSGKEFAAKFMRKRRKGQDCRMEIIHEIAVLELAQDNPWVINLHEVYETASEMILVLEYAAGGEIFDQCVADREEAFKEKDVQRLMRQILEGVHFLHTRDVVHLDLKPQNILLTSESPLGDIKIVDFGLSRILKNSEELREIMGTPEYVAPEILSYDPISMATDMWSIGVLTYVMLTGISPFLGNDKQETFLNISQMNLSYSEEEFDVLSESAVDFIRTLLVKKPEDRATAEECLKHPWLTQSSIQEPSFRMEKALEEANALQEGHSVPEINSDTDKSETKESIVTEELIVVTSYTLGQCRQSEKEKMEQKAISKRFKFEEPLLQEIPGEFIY
Description: as §1, §2

[9] = target: protein kinases (human kinome) (Homo sapiens, UniProt P41240); details: experiment wp045
Sequence of protein kinases (human kinome) (Homo sapiens, UniProt P41240) (P41240 whole entry): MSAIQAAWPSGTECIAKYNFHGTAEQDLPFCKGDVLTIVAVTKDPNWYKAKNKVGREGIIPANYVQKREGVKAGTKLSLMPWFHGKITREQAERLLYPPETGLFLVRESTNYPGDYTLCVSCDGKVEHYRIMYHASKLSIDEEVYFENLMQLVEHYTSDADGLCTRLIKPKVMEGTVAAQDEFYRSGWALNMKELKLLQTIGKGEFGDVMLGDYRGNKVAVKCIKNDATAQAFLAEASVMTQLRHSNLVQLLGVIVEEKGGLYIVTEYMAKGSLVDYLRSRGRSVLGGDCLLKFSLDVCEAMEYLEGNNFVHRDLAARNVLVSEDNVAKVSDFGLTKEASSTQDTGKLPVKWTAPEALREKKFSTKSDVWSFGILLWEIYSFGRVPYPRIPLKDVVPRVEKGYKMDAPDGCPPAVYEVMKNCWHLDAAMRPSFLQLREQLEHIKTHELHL
Description: as §1, §2

[10] = target: protein kinases (human kinome) (Homo sapiens, UniProt P42684)
Description: as §1, §2

[11] = target: protein kinases (human kinome) (Homo sapiens, UniProt P30291)
Sequence of protein kinases (human kinome) (Homo sapiens, UniProt P30291) (P30291 whole entry): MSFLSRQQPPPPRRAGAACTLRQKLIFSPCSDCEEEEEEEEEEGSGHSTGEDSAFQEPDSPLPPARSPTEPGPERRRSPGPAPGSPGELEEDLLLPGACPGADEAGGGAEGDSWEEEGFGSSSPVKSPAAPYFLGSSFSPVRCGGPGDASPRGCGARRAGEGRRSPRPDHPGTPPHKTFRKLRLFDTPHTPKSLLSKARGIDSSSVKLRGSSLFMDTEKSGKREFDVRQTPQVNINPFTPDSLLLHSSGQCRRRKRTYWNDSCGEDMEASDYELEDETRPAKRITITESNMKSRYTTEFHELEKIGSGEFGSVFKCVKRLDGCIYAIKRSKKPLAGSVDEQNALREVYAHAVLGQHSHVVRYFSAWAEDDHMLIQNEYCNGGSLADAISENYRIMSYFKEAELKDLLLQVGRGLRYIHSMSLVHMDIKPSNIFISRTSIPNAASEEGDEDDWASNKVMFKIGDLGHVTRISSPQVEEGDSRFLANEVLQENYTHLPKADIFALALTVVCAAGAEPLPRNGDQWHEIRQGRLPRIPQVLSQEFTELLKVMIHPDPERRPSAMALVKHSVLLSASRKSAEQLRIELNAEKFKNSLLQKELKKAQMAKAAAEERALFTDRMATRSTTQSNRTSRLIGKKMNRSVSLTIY
Description: as §1, §2

[12] = target: protein kinases (human kinome) (Homo sapiens, UniProt P11802)
Sequence of protein kinases (human kinome) (Homo sapiens, UniProt P11802) (P11802 whole entry): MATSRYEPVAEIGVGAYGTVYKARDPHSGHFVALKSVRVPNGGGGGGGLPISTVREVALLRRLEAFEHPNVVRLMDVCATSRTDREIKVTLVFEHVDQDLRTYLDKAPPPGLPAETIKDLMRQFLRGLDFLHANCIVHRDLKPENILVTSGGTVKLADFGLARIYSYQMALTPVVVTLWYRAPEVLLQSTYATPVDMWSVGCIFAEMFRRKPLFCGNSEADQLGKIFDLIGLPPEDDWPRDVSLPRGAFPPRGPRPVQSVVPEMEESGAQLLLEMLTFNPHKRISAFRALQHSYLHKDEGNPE
Description: as §1, §2

[13] = target: T3, protein kinases (human kinome) (Homo sapiens, UniProt Q08881); details: experiment wp134
T3 sequence (Q08881 1-620): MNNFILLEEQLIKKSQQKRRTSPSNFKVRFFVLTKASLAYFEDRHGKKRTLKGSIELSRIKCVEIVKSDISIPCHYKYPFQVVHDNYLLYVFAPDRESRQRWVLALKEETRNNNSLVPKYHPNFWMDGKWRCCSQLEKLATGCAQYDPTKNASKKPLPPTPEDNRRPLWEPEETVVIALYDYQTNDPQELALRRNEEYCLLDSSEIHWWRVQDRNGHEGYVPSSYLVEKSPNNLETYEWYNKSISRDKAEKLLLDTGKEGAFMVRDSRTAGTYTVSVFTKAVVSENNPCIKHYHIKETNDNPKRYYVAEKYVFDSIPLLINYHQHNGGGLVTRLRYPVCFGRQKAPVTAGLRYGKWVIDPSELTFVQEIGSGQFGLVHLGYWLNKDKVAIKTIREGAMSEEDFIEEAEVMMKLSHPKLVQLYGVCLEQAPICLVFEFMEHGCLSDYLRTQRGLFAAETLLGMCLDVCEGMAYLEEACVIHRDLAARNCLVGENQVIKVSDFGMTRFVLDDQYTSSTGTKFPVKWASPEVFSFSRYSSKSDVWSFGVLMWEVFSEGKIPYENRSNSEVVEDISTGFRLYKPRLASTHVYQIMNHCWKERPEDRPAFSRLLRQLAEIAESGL
Description: as §1, §2

[14] = target: protein kinases (human kinome) (Homo sapiens, UniProt Q16539)
Description: as §1, §2

[15] = AURKB Q96GD4-5, experiment wp080

CS(=O)(=O)c1ccc(-c2cccn3nc(Nc4cccc(N5CCN(CCCCCCNC(=O)COc6cccc7c6C(=O)N(C6CCC(=O)NC6=O)C7=O)CC5)c4)nc23)cc1 (stereo not shown) [JWG.120]
logFC AURKA (O14965) ([1]; experiment wp134): −1.562 | logFC AAK1 ([2]; AAK1 (Q2M218-1), down): −0.3362 | logFC AAK1 ([2]; AAK1, accession Q2M218-1, direction of change down): −0.3362

CC(C)(C)c1nc(-c2cccc(NS(=O)(=O)c3c(F)cccc3F)c2F)c(-c2ccnc(NCCOCCNC(=O)CCOCCOCCNc3cccc4c3C(=O)N(C3CCC(=O)NC3=O)C4=O)n2)s1 (stereo not shown) [DD-03-106, N-(2-(2-((4-(2-(tert-butyl)-4-(3-((2,6-difluorophenyl)sulfonamido)-2-fluorophenyl)thiazol-5-yl)pyrimidin-2-yl)amino)ethoxy)ethyl)-3-(2-(2-((2-(2,6-dioxopiperidin-3-yl)-1,3-dioxoisoindolin-4-yl)amino)ethoxy)ethoxy)propenamide]
kinases the bifunctional compound degrades ([3]; as stated for the structure in the embodiments): AURKA, BCKDK, CDK1, CDK16, CDK17, CDK2, CDK3, CDK4, CDK6, COQ8A, COQ8B, CSK, EIF2AK2, LIMK1, LIMK2, MAP3K20, NLK, PLK1, PDK1, PDK2, and TESK2 | Kinase hits ([3]; kinases significantly downregulated vs DMSO (fold change cutoff −1.25, P-value<0.01), ≤8 h, 0.1-5 μM degrader, 7 cell lines): AURKA, BCKDK, CDK1, CDK16, CDK17, CDK2, CDK3, CDK4, CDK6, COQ8A, COQ8B, CSK, EIF2AK2, LIMK1, LIMK2, MAP3K20, NLK, PLK1, PDK1, PDK2, TESK2 | Total no. kinase hits ([3]; number of degraded kinases per library compound): 21 | preference for degrading CDK17 [4]: strong preference for degrading CDK17

COc1cc(Nc2ncc3c(n2)-c2ccc(Cl)cc2C(c2c(F)cccc2OC)=NC3)ccc1C(=O)NCCCOCCOCCOCCCNC(=O)COc1cccc2c1C(=O)N(C1CCC(=O)NC1=O)C2=O (stereo not shown) [dAURK.4]
logFC AURKA (O14965) ([1]; experiment wp080): −1.055 | logFC [3, 15]: −0.3932 | logFC AURKB [3, 15]: −0.3932

CN1c2ccccc2C(=O)Nc2cnc(Nc3ccc(N4CCN(C(=O)CCOCCNc5cccc6c5C(=O)N(C5CCC(=O)NC5=O)C6=O)CC4)cc3)nc21 (stereo not shown) [ZNL.03.127]
logFC BLK ([5]; BLK (P51451), direction down, experiment wp149): −0.5024 | logFC of BLK (P51451) ([5]; Experiment wp149): −0.5024 | logFC TNK2 (Q07912-3) ([3]; Experiment wp149, direction down): −0.8778 | logFC ([3]; TNK2 (Q07912-3), experiment wp149, direction down): −0.8778 | logFC LIMK2 ([6]; experiment wp149): −0.3944 | logFC of LIMK2 ([6]; experiment wp149): −0.3944 | logFC LIMK1 ([7]; direction down, experiment wp149): −0.4764 | logFC LIMK1 ([7]; experiment wp149, down): −0.4764 | logFC [8]: −0.4605 | logFC STK17A [8]: −0.4605

Cc1nc(Nc2ncc(C(=O)Nc3c(C)cccc3Cl)s2)cc(N2CCN(CC(=O)NCCCCNC(=O)COc3cccc4c3C(=O)N(C3CCC(=O)NC3=O)C4=O)CC2)n1 (stereo not shown) [DB.3.291]
logFC of CSK ([9]; Accession P41240): −2.257 | logFC CSK ([9]; CSK (P41240), down): −2.257 | logFC ([10]; ABL2 (P42684) protein abundance, degrader vs DMSO, down): −0.3739 | logFC ABL2 (P42684) ([10]; Experiment wp045): −0.3739 | logFC of BLK ([5]; BLK P51451, experiment wp045): −0.5857 | logFC of BLK (P51451) ([5]; Experiment wp045): −0.5857 | logFC WEE1 (P30291-1) ([11]; experiment wp045): −0.4161

CC(=O)c1c(C)c2cnc(Nc3ccc(N4CCN(CCCCNC(=O)CNc5cccc6c5C(=O)N(C5CCC(=O)NC5=O)C6=O)CC4)cn3)nc2n(C2CCCC2)c1=O (stereo not shown) [BSJ.01.147]
logFC CDK4 (P11802) ([12]; experiment wp005): −1.415 | logFC CDK4 (P11802) ([12]; experiment wp084): −1.8 | logFC of WEE1 ([11]; WEE1 P30291-1, experiment wp084): −0.5617 | logFC WEE1 (P30291-1) ([11]; experiment wp005): −0.447 | logFC WEE1 (P30291-1) ([11]; experiment wp084): −0.5617

COc1cc(C)c(Sc2cnc(NC(=O)c3ccc(N4CCN(CCCCCCCNC(=O)COc5cccc6c5C(=O)N(C5CCC(=O)NC5=O)C6=O)CC4)cc3)s2)cc1C(=O)N1CCN(C(C)=O)CC1 (stereo not shown) [BSJ.05.037]
logFC ITK (Q08881) [13]: −1.816 | logFC of LIMK2 ([6]; experiment wp134): −0.4981

CC(=O)c1c(C)c2cnc(Nc3ccc(N4CCN(CC(=O)NCCOCCOCCOCCNc5cccc6c5C(=O)N(C5CCC(=O)NC5=O)C6=O)CC4)cn3)nc2n(C2CCCC2)c1=O (stereo not shown) [YKL.6.102]
logFC CDK4 (P11802) ([12]; experiment wp005): −0.642 | logFC WEE1 (P30291-1) ([11]; experiment wp005): −0.3649

Cc1ncsc1-c1ccc([C@H](C)NC(=O)[C@@H]2C[C@@H](O)CN2C(=O)[C@@H](NC(=O)CCOCCOCCNc2nccc(-c3sc(C(C)(C)C)nc3-c3cccc(NS(=O)(=O)c4c(F)cccc4F)c3F)n2)C(C)(C)C)cc1 [DD.03.156]
logFC of CDK17 ([4]; Accession Q00537, experiment wp056): −1.825 | logFC CDK17 (Q00537) ([4]; experiment wp056, direction of change down): −1.825 | logFC LIMK2 ([6]; experiment wp056): −1.703 | logFC of LIMK2 ([6]; experiment wp056): −1.703 | logFC LIMK1 ([7]; direction down, experiment wp056): −1.037 | logFC LIMK1 ([7]; experiment wp056, down): −1.037

Cc1ccc(NC(=O)c2cccc(C(C)(C)C#N)c2)cc1Nc1ccc2ncn(CCOCCOCCC(=O)N[C@H](C(=O)N3C[C@H](O)C[C@H]3C(=O)NCc3ccc(-c4scnc4C)cc3)C(C)(C)C)c(=O)c2c1 [DD.02.198]
logFC MAPK14 ([3]; MAPK14, accession Q16539-2, direction of change down): −0.617 | logFC MAPK14 ([3]; MAPK14 Q16539-2): −0.617 | logFC ([14]; MAPK14 (Q16539) protein abundance, degrader vs DMSO, down): −1.387 | logFC MAPK14 ([14]; MAPK14, accession Q16539, experiment wp047, direction of change down): −1.387
